Experimental data from ChEMBL document CHEMBL3797042, “Hybrid Pyrrole-Imidazole Alkaloids from the Sponge Agelas sceptrum” (J Nat Prod, 2016).
Values after ≈ are worked out from the molar mass of the structure shown. Active and inactive are the calls of the source. The rule behind the calls is not given here.

Assays:
Staphylococcus aureus [1] = assay: Antimicrobial activity against methicillin-resistant Staphylococcus aureus after 24 hrs by microdilution method; assay type: functional, organism-based
Klebsiella pneumoniae = assay: Antimicrobial activity against Klebsiella pneumoniae after 24 hrs by microdilution method; assay type: functional
[2] = Cytotoxicity against human FS4-LTM cells after 24 hrs by WST-1 assay; assay type: cell-based; conditions: for IC90: human, 24 h
Staphylococcus aureus [3] = assay: Antimicrobial activity against methicillin-sensitive Staphylococcus aureus after 24 hrs by microdilution method; assay type: functional, organism-based
Micrococcus luteus = assay: Antimicrobial activity against Micrococcus luteus after 24 hrs by microdilution method; assay type: functional
L929 = assay: (§1) Cytotoxicity against mouse L929 cells after 5 days by WST-1 assay; assay type: cell-based; conditions: for IC90: mouse, l929, 120 h
Candida albicans = assay: Antimicrobial activity against Candida albicans after 24 hrs by microdilution method; assay type: functional, organism-based
Pseudomonas aeruginosa = assay: Antimicrobial activity against Pseudomonas aeruginosa after 24 hrs by microdilution method; assay type: functional, organism-based
[4] = (§2) Cytotoxicity against human KB3-1 cells after 5 days by WST-1 assay; assay type: functional, cell-based, KB 3-1
MCF7 = assay: Cytotoxicity against human MCF7 cells after 5 days by WST-1 assay; assay type: functional, cell-based
KB 3-1 = assay: as §2; assay type: functional, cell-based
[5] = as §1; assay type: cell-based; conditions: mouse, L929 cells
[6] = Homo sapiens, KB 3-1, 120 h, read-out: IC50

Compound | MIC (Staphylococcus aureus [1]) | MIC (Klebsiella pneumoniae) | IC50 [2] | IC90 [2] | MIC (Staphylococcus aureus [3]) | MIC (Micrococcus luteus) | IC50 (L929; l929) | IC90 (L929) | MIC (Candida albicans) | MIC (Pseudomonas aeruginosa) | IC90 ([4]; Homo sapiens, KB 3-1, 120 h) [µM] | IC50 [4, 6] [µM] | IC90 (MCF7) | IC50 (MCF7; mcf7) | IC50 ([4]; kb 3-1) | IC90 (KB 3-1) | IC50 (L929; Mus musculus, L929, 120 h, read-out: IC50) [µM] | IC90 at 120 h [5] [µM] | IC90 (MCF7; Homo sapiens, MCF7, 120 h) [µM] | IC50 (MCF7; Homo sapiens, MCF7, 120 h, read-out: IC50) [µM]
NCCC(=O)c1cccc2c1N[C@H](CNC(=O)c1cc(Br)c(Br)[nH]1)[C@@H](c1cnc(N)[nH]1)O2 | inactive | inactive | Not Active | Not Active | inactive | inactive | Not Active | Not Active | inactive | inactive | ≥ 130 | 44 | inactive | Not Active |  |  |  |  |  | 
C[n+]1cnc2[nH]c(=O)n(-c3nc(N)[nH]c3[C@@H]3[C@@H](CNC(=O)c4cc(Br)c[nH]4)[C@H](CNC(=O)c4cc(Br)c[nH]4)[C@H]3c3cnc(N)[nH]3)c2c1N | inactive | inactive | Not Active | Not Active | inactive | inactive | Not Active | Not Active | inactive | inactive |  |  | inactive | Not Active | Not Active | inactive |  |  |  | 
Nc1ncc([C@@H]2[C@@H](CNC(=O)c3ccc[nH]3)[C@H](CNC(=O)c3cc(Br)c[nH]3)[C@H]2c2cnc(N)[nH]2)[nH]1 | inactive | inactive | Not Active | Not Active | inactive | inactive | Not Active | Not Active | inactive | inactive | 92 | 29 | inactive | Not Active |  |  |  |  |  | 
Nc1ncc(/C=C/CNC(=O)c2cc(Br)c(Br)[nH]2)[nH]1 [OROIDIN] | inactive | inactive | Not Active | Not Active | inactive | inactive | Not Active | Not Active | inactive | inactive |  |  | inactive | Not Active | Not Active | inactive |  |  |  | 
Nc1ncc([C@@H]2[C@@H](CNC(=O)c3cc(Br)c[nH]3)[C@H](CNC(=O)c3cc(Br)c[nH]3)[C@H]2c2cnc(N)[nH]2)[nH]1 | inactive | 32 µM (≈ 19.8 µg/mL) | Not Active | Not Active | inactive | 32 µM (≈ 19.8 µg/mL) |  |  | inactive | inactive | 2390 | 80 |  |  |  |  | 193 | ≥ 238 | ≥ 238 | 238
